Data on one molecule can be found in the NIST ThermoML archive (doi:10.1021/je800049b).

Numbers after ± are expanded uncertainties.

For data set [1] the following is noted: Crystal; DTA.
The nature of data set [2]: Molar enthalpy of transition or fusion. As to conditions: Crystal; DSC.

On to `O=P(O)(c1ccccc1)c1ccccc1` [diphenylphosphinic acid], for which the Normal melting temperature in data set [1] stood at 192.97 ± 0.5 °C. The “Molar enthalpy of transition or fusion” value in data set [2] was determined as 5.24 ± 0.155 kcal/mol.
